Reference: patent US20230365541A1, “INHIBITOR OF ENHANCER OF ZESTE HOMOLOGUE 2, AND USE THEREOF” (HAISCO PHARMACEUTICALS PTE. LTD., priority 2020, published 2023)
Where a name gives a salt, the structure may show the parent alone. Values belong to the compound of their own block, whether it stands above or below them.

Molecular target: EZH2 (Homo sapiens (Human), UniProt Q15910)
Assay: Test method for EZH2 enzyme activity
Assay type: biochemical
Details: H3K27(21-44) and [3H]-SAM
Experimental: The compounds were dissolved in DMSO, formulated into 10 mM solutions and serially diluted with DMSO to obtain 100-fold the final concentration. 200 nL of the solutions of the compounds was transferred to a 384-well plate (Perkin Elmer, Cat. No. 6007299) by using Echo550. EZH2 (BPS, Cat. No. 51004) was diluted with 1×assay buffer (50 mM Tris-HCl 9.0, 0.01% Tween-20, 1 mM DTT) to 2-fold the final concentration (EZH2: 3 nM). A mixed solution of H3K27(21-44) and [3H]-SAM (PerkinElmer, Lot. No. 2146246) (H3K27(21-44): 200 nM, [3H]-SAM: 100 nM) was formulated. The EZH2 diluted solution was taken and added to the 384-well plate at 10 μL/well (10 μL of 1×assay buffer was added in the control group). The plate was sealed and then incubated at room temperature for 15 minutes. 10 μL of the mixed solution of H3K27 (21-44) and [3H]-SAM was added to each well. The plate was sealed and then incubated at room temperature for 60 minutes. 50 μM of SAM (Sigma, Cat. No. A7007) was formulated at low temperature and added to the 384-well plate at 10 μL/well. The sample was taken at 25 μL/well, transferred to a flashplate and incubated at room temperature for at least 1 hour. The flashplate was washed 3 times with a plate washing liquid (dH2O+0.1% Tween-20) and read by using Microbeta. The inhibition rate was calculated in Excel according to: inhibition rate (%)=(maximum valuepositive control−detection signal value)/(maximum valuepositive control−minimum valuenegative control)*100, and IC50 values were fitted by using XL-Fit.

EZH2, sequence (Q15910 other isoform, or with tags, fused parts or gaps isoform Q15910-2): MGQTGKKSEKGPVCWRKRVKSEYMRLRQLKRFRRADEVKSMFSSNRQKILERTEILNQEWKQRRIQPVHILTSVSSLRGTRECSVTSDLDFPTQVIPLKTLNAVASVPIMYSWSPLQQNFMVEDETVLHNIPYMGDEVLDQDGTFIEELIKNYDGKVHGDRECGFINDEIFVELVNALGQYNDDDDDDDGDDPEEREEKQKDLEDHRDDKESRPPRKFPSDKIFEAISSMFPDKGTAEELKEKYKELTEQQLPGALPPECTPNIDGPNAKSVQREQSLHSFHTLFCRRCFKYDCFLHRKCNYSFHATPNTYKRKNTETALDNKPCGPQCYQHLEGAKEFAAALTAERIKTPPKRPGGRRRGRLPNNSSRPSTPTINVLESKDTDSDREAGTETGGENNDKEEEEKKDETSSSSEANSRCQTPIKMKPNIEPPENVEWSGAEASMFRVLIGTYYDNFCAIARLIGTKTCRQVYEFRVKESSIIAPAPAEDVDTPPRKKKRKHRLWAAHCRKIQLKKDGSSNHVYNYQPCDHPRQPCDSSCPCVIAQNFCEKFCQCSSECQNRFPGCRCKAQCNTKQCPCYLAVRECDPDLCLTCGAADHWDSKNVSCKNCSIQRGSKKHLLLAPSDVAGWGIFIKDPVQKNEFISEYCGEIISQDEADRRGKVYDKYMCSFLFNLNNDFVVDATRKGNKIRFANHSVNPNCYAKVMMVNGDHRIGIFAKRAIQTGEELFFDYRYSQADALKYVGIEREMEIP
EZH2, sequence (O75530 2-441 partner): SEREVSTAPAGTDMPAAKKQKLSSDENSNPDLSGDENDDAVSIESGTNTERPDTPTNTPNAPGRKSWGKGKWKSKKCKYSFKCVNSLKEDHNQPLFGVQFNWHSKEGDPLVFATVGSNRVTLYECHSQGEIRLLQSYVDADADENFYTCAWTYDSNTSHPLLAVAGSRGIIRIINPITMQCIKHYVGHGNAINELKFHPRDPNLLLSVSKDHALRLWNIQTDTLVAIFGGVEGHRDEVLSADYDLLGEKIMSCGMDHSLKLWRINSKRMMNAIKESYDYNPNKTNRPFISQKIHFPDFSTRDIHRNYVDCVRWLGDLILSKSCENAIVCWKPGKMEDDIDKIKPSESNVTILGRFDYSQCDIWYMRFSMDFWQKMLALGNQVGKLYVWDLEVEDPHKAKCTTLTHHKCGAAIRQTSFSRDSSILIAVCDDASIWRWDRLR
EZH2, sequence (Q15022 2-739 partner): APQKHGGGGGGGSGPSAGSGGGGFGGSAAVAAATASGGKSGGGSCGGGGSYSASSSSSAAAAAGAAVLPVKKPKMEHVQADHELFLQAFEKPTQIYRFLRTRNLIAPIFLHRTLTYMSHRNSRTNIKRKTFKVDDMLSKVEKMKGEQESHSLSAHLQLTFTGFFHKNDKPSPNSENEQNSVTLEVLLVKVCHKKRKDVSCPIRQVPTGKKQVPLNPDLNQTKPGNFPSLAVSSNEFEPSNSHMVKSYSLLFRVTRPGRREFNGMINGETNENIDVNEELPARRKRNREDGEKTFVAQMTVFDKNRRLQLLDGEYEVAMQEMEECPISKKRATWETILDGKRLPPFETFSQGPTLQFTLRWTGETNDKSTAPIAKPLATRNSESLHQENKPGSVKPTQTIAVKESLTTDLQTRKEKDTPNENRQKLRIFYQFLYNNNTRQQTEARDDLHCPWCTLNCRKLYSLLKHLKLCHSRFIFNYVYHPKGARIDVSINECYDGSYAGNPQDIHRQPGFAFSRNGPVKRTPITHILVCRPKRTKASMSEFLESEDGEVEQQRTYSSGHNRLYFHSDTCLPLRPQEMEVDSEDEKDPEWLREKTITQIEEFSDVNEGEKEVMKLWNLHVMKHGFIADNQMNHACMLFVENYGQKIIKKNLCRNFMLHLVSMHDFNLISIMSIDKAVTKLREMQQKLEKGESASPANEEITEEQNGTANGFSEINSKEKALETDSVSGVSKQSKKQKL
EZH2, sequence (Q09028 2-425 partner): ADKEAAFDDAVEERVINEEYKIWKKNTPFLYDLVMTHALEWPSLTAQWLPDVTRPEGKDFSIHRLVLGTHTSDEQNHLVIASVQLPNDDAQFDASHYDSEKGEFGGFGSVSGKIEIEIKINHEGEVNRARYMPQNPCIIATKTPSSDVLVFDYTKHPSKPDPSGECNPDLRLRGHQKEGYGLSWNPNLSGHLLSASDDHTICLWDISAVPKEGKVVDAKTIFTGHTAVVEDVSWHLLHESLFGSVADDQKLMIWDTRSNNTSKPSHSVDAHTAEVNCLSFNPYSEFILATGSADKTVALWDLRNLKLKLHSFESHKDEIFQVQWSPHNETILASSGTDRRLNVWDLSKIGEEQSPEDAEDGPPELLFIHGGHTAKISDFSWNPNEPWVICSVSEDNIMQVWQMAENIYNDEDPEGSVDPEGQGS
EZH2, sequence (Q6ZN18 whole entry partner): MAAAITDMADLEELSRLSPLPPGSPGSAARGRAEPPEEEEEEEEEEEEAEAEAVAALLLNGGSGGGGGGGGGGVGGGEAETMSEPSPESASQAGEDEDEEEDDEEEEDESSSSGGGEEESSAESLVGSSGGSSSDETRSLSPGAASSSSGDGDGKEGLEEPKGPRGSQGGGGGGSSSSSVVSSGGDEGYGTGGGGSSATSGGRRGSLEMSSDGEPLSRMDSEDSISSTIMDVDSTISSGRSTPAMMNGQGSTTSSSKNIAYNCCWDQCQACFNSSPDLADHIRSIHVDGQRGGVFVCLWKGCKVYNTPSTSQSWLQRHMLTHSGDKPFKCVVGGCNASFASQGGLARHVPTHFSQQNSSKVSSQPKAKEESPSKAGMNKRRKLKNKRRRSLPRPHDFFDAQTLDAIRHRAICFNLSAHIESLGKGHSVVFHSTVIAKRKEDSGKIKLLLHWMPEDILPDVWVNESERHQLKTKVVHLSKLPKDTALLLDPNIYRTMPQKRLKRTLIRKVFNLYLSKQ

- IC50: 0.92 nM
Structure (SMILES): CSc1cc(C)[nH]c(=O)c1CNC(=O)c1cc(Cl)c2c(c1C)OC(C)(C1CCC(N3CC(C#N)C3)CC1)O2 (single isomer, unassigned) [Compound 2, isomer 1, 7-chloro-2-(4-(3-cyanoazetidin-1-yl)cyclohexyl)-2,4-dimethyl-N-((6-methyl-4-(methylthio)-2-oxo-1,2-dihydropyridin-3-yl)methyl)benzo[d][1,3]dioxole-5-carboxamide]

- IC50: 0.72 nM
Structure (SMILES): CSc1cc(C)[nH]c(=O)c1CNC(=O)c1cc(Cl)c2c(c1C)OC(C)(C1CCC(N3CC(C#N)C3)CC1)O2 (single isomer, unassigned) [Compound 2, isomer 2, 7-chloro-2-(4-(3-cyanoazetidin-1-yl)cyclohexyl)-2,4-dimethyl-N-((6-methyl-4-(methylthio)-2-oxo-1,2-dihydropyridin-3-yl)methyl)benzo[d][1,3]dioxole-5-carboxamide]

- IC50: 0.51 nM
Structure (SMILES): CSc1cc(C)[nH]c(=O)c1CNC(=O)c1cc(Cl)c2c(c1C)OC(C)([C@H]1CC[C@@H](NCC3(C)COC3)CC1)O2 (single isomer, unassigned) [Compound 3, isomer 2, 7-chloro-2,4-dimethyl-N-((6-methyl-4-(methylthio)-2-oxo-1,2-dihydropyridin-3-yl)methyl)-2-(4-(((3-methyloxetan-3-yl)methyl)amino)cyclohexyl)benzo[d][1,3]dioxole-5-carboxamide trifluoroacetate]

- IC50: 0.52 nM
Structure (SMILES): CSc1cc(C)[nH]c(=O)c1CNC(=O)c1cc(Cl)c2c(c1C)OC(C)([C@H]1CC[C@@H](NC(=O)C3CC(F)(F)C3)CC1)O2 (single isomer, unassigned) [Compound 6, isomer 1, 7-chloro-2-(4-(3,3-difluorocyclobutane-1-carboxamido)cyclohexyl)-2,4-dimethyl-N-((6-methyl-4-(methylthio)-2-oxo-1,2-dihydropyridin-3-yl)methyl)benzo[d][1,3]dioxole-5-carboxamide]

- IC50: 0.64 nM
Structure (SMILES): CSc1cc(C)[nH]c(=O)c1CNC(=O)c1cc(Cl)c2c(c1C)OC(C)([C@H]1CC[C@@H](NC(=O)C3CC(F)(F)C3)CC1)O2 (single isomer, unassigned) [Compound 6, isomer 2, 7-chloro-2-(4-(3,3-difluorocyclobutane-1-carboxamido)cyclohexyl)-2,4-dimethyl-N-((6-methyl-4-(methylthio)-2-oxo-1,2-dihydropyridin-3-yl)methyl)benzo[d][1,3]dioxole-5-carboxamide]

- IC50: 0.51 nM
Structure (SMILES): CSc1cc(C)[nH]c(=O)c1CNC(=O)c1cc(Cl)c2c(c1C)OC(C)(C1CCC(c3cnn(C)c3)CC1)O2 (single isomer, unassigned) [Compound 8, isomer 1, 7-chloro-2,4-dimethyl-2-(4-(1-methyl-1H-pyrazol-4-yl)cyclohexyl)-N-((6-methyl-4-(methylthio)-2-oxo-1,2-dihydropyridin-3-yl)methyl)benzo[d][1,3]dioxole-5-carboxamide]

- IC50: 0.81 nM
Structure (SMILES): CO[C@H]1C[C@H](NC2CCC(C3(C)Oc4c(Cl)cc(C(=O)NCc5c(SC)cc(C)[nH]c5=O)c(C)c4O3)CC2)C1 (single isomer, unassigned) [Compound 9, isomer 1, 7-chloro-2-(4-((trans-3-methoxycyclobutyl)amino)cyclohexyl)-2,4-dimethyl-N-((6-methyl-4-(methylthio)-2-oxo-1,2-dihydropyridin-3-yl)methyl)benzo[d][1,3]dioxole-5-carboxamide]

- IC50: 0.48 nM
Structure (SMILES): CO[C@H]1C[C@H](NC2CCC(C3(C)Oc4c(Cl)cc(C(=O)NCc5c(SC)cc(C)[nH]c5=O)c(C)c4O3)CC2)C1 (single isomer, unassigned) [Compound 9, isomer 2, 7-chloro-2-(4-((trans-3-methoxycyclobutyl)amino)cyclohexyl)-2,4-dimethyl-N-((6-methyl-4-(methylthio)-2-oxo-1,2-dihydropyridin-3-yl)methyl)benzo[d][1,3]dioxole-5-carboxamide]

- IC50: 0.74 nM
Structure (SMILES): CSc1cc(C)[nH]c(=O)c1CNC(=O)c1cc(Cl)c2c(c1C)OC(C)(C1CCN(C3CC(F)(F)C3)CC1)O2 (single isomer, unassigned) [Compound 12, isomer 1, 7-chloro-2-(1-(3,3-difluorocyclobutyl)piperidin-4-yl)-2,4-dimethyl-N-((6-methyl-4-(methylthio)-2-oxo-1,2-dihydropyridin-3-yl)methyl)benzo[d][1,3]dioxole-5-carboxamide]

- IC50: 0.78 nM
Structure (SMILES): CSc1cc(C)[nH]c(=O)c1CNC(=O)c1cc(Cl)c2c(c1C)OC(C)(C1CCC(N3CCC4(CNC(=O)C4)C3)CC1)O2 (single isomer, unassigned) [Compound 18, isomer 2, 7-chloro-2,4-dimethyl-N-((6-methyl-4-(methylthio)-2-oxo-1,2-dihydropyridin-3-yl)methyl)-2-(4-(8-oxo-2,7-diazaspiro[4.4]nonan-2-yl)cyclohexyl)benzo[d][1,3]dioxole-5-carboxamide]

- IC50: 0.51 nM
Structure (SMILES): CSc1cc(C)[nH]c(=O)c1CNC(=O)c1cc(Cl)c2c(c1C)OC(C)([C@H]1CC[C@H](CNC3CC(F)(F)C3)CC1)O2 (single isomer, unassigned) [Compound 40, isomer 2, 7-chloro-2-(4-(((3,3-difluorocyclobutyl)amino)methyl)cyclohexyl)-2,4-dimethyl-N-((6-methyl-4-(methylthio)-2-oxo-1,2-dihydropyridin-3-yl)methyl)benzo[d][1,3]dioxole-5-carboxamide]

The remaining lines, values behind:

Structure (SMILES): CSc1cc(C)[nH]c(=O)c1CNC(=O)c1cc(Cl)c2c(c1C)OC(C)(C1CCC(N3CC(N(C)C)C3)CC1)O2 (single isomer, unassigned) [Compound 1, isomer 2, 7-chloro-2-(4-(3-(dimethylamino)azetidin-1-yl)cyclohexyl)-2,4-dimethyl-N-((6-methyl-4-(methylthio)-2-oxo-1,2-dihydropyridin-3-yl)methyl)benzo[d][1,3]dioxole-5-carboxamide]
- IC50: 0.6 nM

Structure (SMILES): CSc1cc(C)[nH]c(=O)c1CNC(=O)c1cc(Cl)c2c(c1C)OC(C)([C@H]1CC[C@@H](NCC3(C)COC3)CC1)O2 (single isomer, unassigned) [Compound 3, isomer 1, 7-chloro-2,4-dimethyl-N-((6-methyl-4-(methylthio)-2-oxo-1,2-dihydropyridin-3-yl)methyl)-2-(4-(((3-methyloxetan-3-yl)methyl)amino)cyclohexyl)benzo[d][1,3]dioxole-5-carboxamide trifluoroacetate]
- IC50: 0.65 nM

Structure (SMILES): CSc1cc(C)[nH]c(=O)c1CNC(=O)c1cc(Cl)c2c(c1C)OC(C)(C1CCN(C(=O)C3CC(F)(F)C3)CC1)O2 (single isomer, unassigned) [Compound 5, isomer 1, 7-chloro-2-(1-(3,3-difluorocyclobutane-1-carbonyl)piperidin-4-yl)-2,4-dimethyl-N-((6-methyl-4-(methylthio)-2-oxo-1,2-dihydropyridin-3-yl)methyl)benzo[d][1,3]dioxole-5-carboxamide]
- IC50: 0.58 nM

Structure (SMILES): CSc1cc(C)[nH]c(=O)c1CNC(=O)c1cc(Cl)c2c(c1C)OC(C)(C1CCN(C(=O)C3CC3)CC1)O2 (single isomer, unassigned) [Compound 7, isomer 1, 7-chloro-2-(1-(cyclopropanecarbonyl)piperidin-4-yl)-2,4-dimethyl-N-((6-methyl-4-(methylthio)-2-oxo-1,2-dihydropyridin-3-yl)methyl)benzo[d][1,3]dioxole-5-carboxamide]
- IC50: 0.52 nM

Structure (SMILES): CSc1cc(C)[nH]c(=O)c1CNC(=O)c1cc(Cl)c2c(c1C)OC(C)(C1CCC(c3cnn(C)c3)CC1)O2 (single isomer, unassigned) [Compound 8, isomer 2, 7-chloro-2,4-dimethyl-2-(4-(1-methyl-1H-pyrazol-4-yl)cyclohexyl)-N-((6-methyl-4-(methylthio)-2-oxo-1,2-dihydropyridin-3-yl)methyl)benzo[d][1,3]dioxole-5-carboxamide]
- IC50: 0.9 nM

Structure (SMILES): CSc1cc(C)[nH]c(=O)c1CNC(=O)c1cc(Cl)c2c(c1C)OC(C)(C1CCN(CC3CC(F)(F)C3)CC1)O2 (single isomer, unassigned) [Compound 10, isomer 1, 7-chloro-2-(1-((3,3-difluorocyclobutyl)methyl)piperidin-4-yl)-2,4-dimethyl-N-((6-methyl-4-(methylthio)-2-oxo-1,2-dihydropyridin-3-yl)methyl)benzo[d][1,3]dioxole-5-carboxamide]
- IC50: 0.56 nM

Structure (SMILES): CSc1cc(C)[nH]c(=O)c1CNC(=O)c1cc(Cl)c2c(c1C)OC(C)([C@H]1CC[C@H](CNC3CC(F)(F)C3)CC1)O2 (single isomer, unassigned) [Compound 40, isomer 1, 7-chloro-2-(4-(((3,3-difluorocyclobutyl)amino)methyl)cyclohexyl)-2,4-dimethyl-N-((6-methyl-4-(methylthio)-2-oxo-1,2-dihydropyridin-3-yl)methyl)benzo[d][1,3]dioxole-5-carboxamide]
- IC50: 0.61 nM
